Row | SMILES | melting point [°C]
1 | O=C(O)c1cc(Oc2c(Br)cc(Br)cc2Br)ccc1[N+](=O)[O-] | 162 to 170
2 | CCC(CC)(CC(=O)Nc1cccc(OCc2ccc3ccc(Br)cc3n2)c1)C(=O)O | 175
3 | BrCc1cc2ccc3ccccc3c2s1 | 75 to 78
4 | CN(C(=O)c1ccc(Cl)cc1)[C@@H]1CCN(C(=O)Nc2ccc(F)nc2)C[C@H]1c1ccc(Cl)c(Cl)c1 | 156 to 158
5 | CN(C)C=Nc1sc(C=O)c(Cl)c1C#N | 186
6 | CC(C#Cc1ccc(Oc2cncc(Cl)c2)o1)N(O)C(N)=O (stereo unspecified) | 150
7 | C[C@@H]1NC(=O)OC1(C)C | 60
8 | CCn1c(=O)n(CCCCC(C)(C)O)c(=O)c2[nH]cnc21 | 112 to 114
9 | Ic1n[nH]c2ccccc12 | 54 to 55
10 | Cn1ccc2ncnc(Oc3ccc(NC(=O)Nc4cccc(C(F)(F)F)c4)c(Cl)c3)c21 | 192 to 194
11 | CC(C)OC(=O)Nc1ccc(N)c(N)c1 | 108 to 110
12 | Nc1cc(=O)[nH]c(=O)n1Cc1ccncc1 | 163 to 168
13 | COc1ccc([N+](=O)[O-])c(CBr)c1 | 64 to 65
14 | CCOC(=O)C1=C(C)NC(N=CCN(C)C)=C(C(=O)OCC)C1c1ccccc1 (stereo unspecified) | 126
15 | C#Cc1cccc(Nc2ncnc3cnc(NC(=O)/C=C/CN(C)C)cc23)c1 | 163 to 166
16 | C=CCCCCCCCCc1nc2c(s1)NCCCC2 | 94 to 95
17 | CCCC1=C(C(=O)OCC)C(c2cccc(C#N)c2OC)c2c[nH]nc2N1 (stereo unspecified) | 220 to 222
18 | NC(=O)Cc1ccc(-c2nc3ccccc3o2)cc1 | 251 to 255
19 | COc1ccc(C(=O)C=Cc2ccccc2F)c(OC)c1OC | 75 to 75.8
20 | N=C(NCCCc1c[nH]cn1)NC1CCN(c2ccc(C3=NNC(=O)CC3CO)cc2[N+](=O)[O-])CC1 (stereo unspecified) | 135 to 137
21 | COc1ccc(Oc2cccnc2)cc1C#CC(C)N(O)C(N)=O (stereo unspecified) | 153 to 154
22 | CCCC[C@@]1(O)CCC[C@@]2(C)CC[C@@H]3C[C@@]21OC3(C)C | 90 to 92
23 | Cc1nc(-n2ccc(O)cc2=O)sc1C(=O)NCc1ccc(F)c(F)c1 | 294 to 296
24 | COC(=O)C1CC(C#N)(c2cccc3ccccc23)CCC1=O (stereo unspecified) | 166 to 168
25 | Cc1c(OC(F)F)ccnc1CSc1nc2ccc(OC(F)F)cc2[nH]1 | 181 to 182
26 | CCOc1ccc2c(c1)n(C1CCCCC1)c(=O)n2S(=O)(=O)c1ccc(N)cc1OC | 228

Row | SMILES | melting point [°C]
27 | Cn1c(NO)cc(=O)n(C2CCCCC2)c1=O | 153 to 155
28 | CCCc1c(CSc2ncccc2OCC(=O)O)ccc(C(C)=O)c1O | 157
29 | CCCc1c(OCCCOc2cc([N+](=O)[O-])c(Cl)cc2C)ccc(C(C)=O)c1O | 113 to 115
30 | CC(=O)OC1C(N2CCCCC2)CC2C3CCC4CCC(N5CCCCC5)CC4(C)C3CCC21C (stereo unspecified) | 156 to 161
31 | O=C(c1ccc(Br)cc1Cl)N1Cc2cccn2Cc2ccccc21 | 77 to 80
32 | CCCCC(CC)COc1cc2c3c(cccc3c1Br)C(=O)c1ccccc1-2 (stereo unspecified) | 85 to 88
33 | C=Cc1cc(CNC(=O)NCc2ccc(C(C)(C)C)cc2)cc(Cl)c1NS(C)(=O)=O | 165 to 167
34 | CN1CCN(c2ccc(Nc3ncc4ccc(-c5ccc(S(C)(=O)=O)cc5)n4n3)cc2)CC1 | 234 to 238
35 | COc1cc(Nc2c(C#N)cnc3cc(-c4ccc(CCl)cc4)ccc23)c(Cl)cc1Cl | 236 to 239
36 | COC(=O)C(C)(C)c1cn2nc(Cl)c(C)cc2n1 | 98 to 99
37 | O=C1N(c2ccc(Cl)cc2F)C(=S)C2CCCCC12O (stereo unspecified) | 156 to 157
38 | CC(C)(N)CNc1ncc2ncnc(Nc3ccc(F)c(Cl)c3)c2n1 | 205 to 207
39 | CC(OC(=O)c1ccccc1)C(N)=S (stereo unspecified) | 100 to 101
40 | COCC(NC(=O)OCc1ccccc1)C(=O)NCc1ccccc1 (stereo unspecified) | 112 to 114
41 | O=C(CCCc1cccnc1)N1CCC(CC(c2ccccc2)c2ccccc2)CC1 | 98 to 100
42 | CCc1cc(C=O)c2ccc3cccc4ccc1c2c34 | 134 to 136
43 | CN1CCC(C2(O)CC(c3ccc(F)cc3)c3ccc(F)cc32)CC1 (stereo unspecified) | 146 to 147
44 | COc1cc(CCC2=NNC(=O)CC2)cc(OC)c1OC | 116 to 117
45 | CN(CCCC(C(N)=O)(c1ccccc1)c1ccccc1)CCc1ccc2c(c1)OCO2 | 89 to 90
46 | CC(C)(C)c1cc(SC(=S)NN)cc(C(C)(C)C)c1O | 146
47 | CCOC(=O)/C(=C\Nc1cc(OC)ccc1OC)c1ccc(OC)cc1 | 65 to 66
48 | Cc1cc(=O)c(C(=O)NS(C)(=O)=O)nn1-c1ccc(Cl)cc1 | 225 to 227
49 | COc1ccc2c(c1)c(-c1cc3nccnc3[nH]1)cn2Cc1ccccc1 | 240 to 244
50 | COC(=O)C(=C(C)C)N1CC(NC(=O)COc2ccccc2)C1=O (stereo unspecified) | 154 to 155
51 | Cc1cc(-n2ccnc2)c2cccc(OCc3c(Cl)ccc(S(=O)(=O)N4CCC[C@H]4C(=O)N(C)CCCN(C)CCCO)c3Cl)c2n1 | 92

— a melting point compilation (Tetko et al.; mined from patent text by program, amines drawn as free bases though some values may be those of a salt)
